In publication PMC3174134, “Lucanthone and Its Derivative Hycanthone Inhibit Apurinic Endonuclease-1 (APE1) by Direct Protein Binding” (PLoS ONE, 2011):
Where two headings read alike, the source gives them in different places.

What was measured:
APE1 [1] = target: T1, APE1 (Homo sapiens, UniProt P27695); test: APE1 endonuclease activity: incision of depurinated plasmid (pUC18) DNA; format: biochemical; parameters: the full length APE1 protein was successfully expressed and purified; made in house; host or cells: E. coli BL21/DE3
T1 sequence (P27695 whole entry): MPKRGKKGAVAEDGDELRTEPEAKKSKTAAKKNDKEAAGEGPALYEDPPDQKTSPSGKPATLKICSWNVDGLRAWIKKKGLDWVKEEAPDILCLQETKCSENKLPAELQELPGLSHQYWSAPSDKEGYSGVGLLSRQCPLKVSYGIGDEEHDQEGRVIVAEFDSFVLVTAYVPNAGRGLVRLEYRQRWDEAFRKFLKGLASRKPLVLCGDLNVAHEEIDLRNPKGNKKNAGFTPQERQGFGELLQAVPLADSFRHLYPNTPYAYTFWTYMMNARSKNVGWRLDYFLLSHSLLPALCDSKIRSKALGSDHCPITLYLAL
Procedure: APE1 endonuclease activity was determined using an assay that measures the conversion of plasmid DNA from supercoiled to relaxed form by incision at an abasic site [35]–[36]. Briefly, the substrate used was 200 ng of depurinated pUC18 DNA in 10 µl of 1× APE1 buffer containing 50 mM Hepes, pH 7.4, 150 mM KCl, 5 mM MgCl2 and 100 µg/ml of BSA in presence of different concentrations of the cell extract (1 µl containing 0–55 ng of total protein). Similar reactions mixtures were set up with untreated pUC18, which served as the internal control. This reaction mixture was incubated at 37°C for 15 min, and the reaction was stopped by addition of alkaline stop mix (0.25% bromocresol green in 0.25N NaOH, 50% glycerol) and left at room temperature for 10–15 min. Then the products were resolved on a 0.8% agarose gel in 40 mM Tris-acetate and 2 mM EDTA for 2 h. The gel was stained with ethidium bromide to visualize supercoiled and relaxed plasmid DNA and imaged with a digital imaging system and the area under the supercoiled and relaxed form was determined. Final calculations were done in femtomoles (fmol) of abasic sites incised/min/mg protein with normalization done using Pyruvate Kinase units (PKU) present in these extracts. Poisson distribution calculations were done on supercoiled and relaxed bands to estimate incisions per plasmid molecule and the resulting depurinated pUC18 had 1 AP site per molecule. The endonuclease activity inhibition by lucanthone was analyzed using standard Lineweaver-Burke Plot to determine if the inhibition was competitive or non-competitive.

APE1 [2] = target: T1, APE1; test: Far UV circular dichroism of APE1 with drug (CDSSTR/DICHROWEB); parameters: the full length APE1 protein was successfully expressed and purified; made in house; host or cells: E. coli BL21/DE3; Helix 1 / Helix 2 / Strand 1 / Strand 2 / Turns / Unordered: unit not given here; settings: APE1 plus drug (1 mg/ml, 50 µl), 37°C, 60 min
Procedure: APE1 and its mutant proteins (10 mg/ml), 50 µl (500 µg) (14 µM) in APE1 buffer (50 mM HEPES, pH 7.4, 150 mM KCl, 5 mM MgCl2), were mixed with lucanthone/hycanthone (1 mg/ml), 50 µl (50 µg), 140 µM and incubated at 37°C for 60 min and far UV-CD spectra were recorded at NSLS U11 beam line at BNL. Lucanthone and hycanthone were also scanned as drug controls. The scanning parameters used were a 0.001 cm path length quartz cell, scanning wavelengths from 260 to 170 nm, bandwidth of 0.5 nm, digital integration time of 1 s, time constant of 200 ms, step size of 1 nm, and sensitivity of 200 µV. The data were corrected with blank subtraction from APE1 buffer alone. The secondary structure for APE1 with or without lucanthone or hycanthone was analyzed using CDSSTR program DICHROWEB [38].

APE1 [3] = target: T1, APE1; test: MALDI-TOF analysis of APE1 degradation; parameters: the full length APE1 protein was successfully expressed and purified; made in house; host or cells: E. coli BL21/DE3; settings: 100 µM drug; for APE1 protein fragments by MALDI-TOF / Full length 35.5 kDa APE1 peak by MALDI-TOF: 37°C; for APE1 protein fragments by MALDI-TOF: 2 or 24 h; for Full length 35.5 kDa APE1 peak by MALDI-TOF: 24 h
Procedure: 100 nM of APE1 protein was treated with 100 µM of lucanthone, hycanthone or CRT at 37°C for 2 h and 24 h and analyzed on sinipinic acid matrix on a Voyager-DE STR (Applied Biosystems) MALDI-TOF instrument at the Proteomics facility at SUNYSB in a linear mode.

APE1 [4] = target: T1, APE1; test: EMSA (gel mobility shift) of APE1 DNA binding capacity with THF-containing substrate; format: biochemical; parameters: the full length APE1 protein was successfully expressed and purified; made in house; host or cells: E. coli BL21/DE3; settings: 100 µM drug preincubated with APE1 30 min
Procedure: In order to elucidate whether lucanthone and hycanthone could inhibit APE1 by interfering with APE1-DNA interaction through their DNA intercalation ability, we measured the DNA binding capacity of APE1 in the presence of lucanthone and hycanthone by incubating different concentrations of APE1 (10 nM and 25 nM) with 100 µM of lucanthone and/or hycanthone for 30 min and subsequently incubating the mixture with 25 nM of THF-containing substrate at 25°C in binding buffer (50 mM HEPES, pH 7.5, 150 mM NaCl, 0.1 mg/ml BSA, 0.5 mM EDTA and 1 mM DTT) for 30 min. THF stands for tetrahydrofuran that represents a synthetic abasic site. This is commonly inserted into an oligonucleotide substrate for measuring APE1 cleavage activity. 5′-incision of THF by APE1 results in a residue that mimics reduced 5′-deoxyribose phosphate group. Since THF group lacks the 1′-OH group, it blocks β-elimination that is required for mediating any dRP lyase activity. The sequence of the APE1 substrate with THF group is 5′[…]-3′ as described by Liu et al.
APE1-DNA complex was then separated from unbound substrate DNA by electrophoresis under native conditions in a 1% agarose-0.1% acrylamide gel at 4°C for 1.5 h as described previously [50]–[51].

SMILES | IC50 (APE1 [1]; read-out: IC50 for inhibition of APE1 incision of depurinated plasmid DNA) | Av. helix length per segment (APE1 [2]) | Av. strand length per segment (APE1 [2]) | Helix 1 (APE1 [2]) | Helix 2 (APE1 [2]) | Strand 1 (APE1 [2]) | Strand 2 (APE1 [2]) | Turns (APE1 [2]) | Unordered (APE1 [2]) | APE1 protein fragments by MALDI-TOF (APE1 [3]) | Full length 35.5 kDa APE1 peak by MALDI-TOF (APE1 [3]) | Inhibition of DNA binding capacity of APE1 (APE1 [4]) | IC50 (APE1 [1]) | Kinetics (mode) of inhibition, Lineweaver-Burke plot (APE1 [1]) | Inhibition of endonuclease activity of wild type APE1 (APE1 [1]; 100 µM lucanthone, 2 h, 37°C) | AP endonuclease activity of recombinant APE1 (APE1 [1]; 10-50 µM, 37°C, 2 h) | Time at which APE1 degradation is seen by MALDI (APE1 [3])
CCN(CC)CCNc1ccc(CO)c2sc3ccccc3c(=O)c12 [hycanthone] | 0.08 µM | 4.020 | 5.799 | 0.00 | 0.069 | 0.267 | 0.141 | 0.124 | 0.399 | cleavage of APE1 as evidenced mainly by 10, 11 and 17 kDa peaks | almost completely degraded | not at all |  |  |  |  | 
CCN(CC)CCNc1ccc(C)c2sc3ccccc3c(=O)c12 [lucanthone, 1-[2-diethylaminoethylamino]-4-methylthioxanthen-9-one] |  | 4.053 | 5.762 | 0.00 | 0.071 | 0.262 | 0.140 | 0.125 | 0.403 | steady degradation of APE1 into smaller fragments | almost completely degraded | marginally inhibited | 5 µM | non-competitive inhibitor | corresponding inhibition of the endonuclease activity | corresponding decrease in AP endonuclease activity | ≤ 2 h
